Experimental data reported in patent publication US20250388568A1, “NLRP3 INHIBITORS” (Kodiak Sciences Inc., priority 2022, published 2025).
Where two headings read alike, the source gives them in different places.

Columns and labels:
[1] = system: IL-1β release in THP-1-ASC-GFP cells after NLRP3 activation; test: IC50 determination of IL-1β release inhibition in THP-1-ASC-GFP cells; assay type: cell-based; settings: THP1-ASC-GFP, read-out: IL-1β IC50 (nM) THP1 cells
Procedure: Example 78: IC50 Determination of IL-1β Release Inhibition in THP-1-ASC-GFP Cells The compounds were tested for their ability to inhibit the IL-1β release in the THP-1-ASC-GFP cells after NLRP3 activation. THP1-ASC-GFP cells (Invivogen […] thawed following Invivogen's initial culture procedure. […] The growth medium was composed of RPM1640 medium (Gibco 32404-014), 10% heat inactivated (HI) serum (Gibco A3840102), Pen/Strep (Quality Biologics 118-089-721), 10 mM Hepes (Quality Biologics 118-089-721), 2 mM Glutamax (GIBCO 35050-061), 100 μg/mL normocin (Invivogen ant-nr), 100 μg/mL Zeocin (Invivogen ant-zn). The growth medium was freshly prepared once a week and sterile filtered. Assay medium consisted of RPMI 1640 medium, 10 mM Hepes, 2 mM Glutamax and Pen/Strep. To the assay medium, 1 μg/mL LPS (Invivogen tlrl-3pelps) was added. A cell suspension was prepared with assay medium and LPS at 1.25M cells per mL. With an electronic pipet, 80 μl of cell suspension was added to U bottom 96 well polystyrene plates (VWR 10062-902) leaving columns 1 and 2 empty. The plates were placed in the incubator for 4 hours. […] DMSO). An hour prior to the end of LPS incubation, a separate 96 deep well plate, Plate B, was prepared with 400 μL of assay media per well, then 2 μL of the stock DMSO solution from Plate A was added to each corresponding well. Plate B was covered to avoid media evaporation. In a 50 mL tube, a solution of nigericin in assay media at […] concentration was prepared. To a new 96 deep well plate, Plate C, 200 μL of this nigericin containing media was dispensed to each well and […] of the test compounds from Plate A to each corresponding well was added. Plate C was covered to avoid media evaporation. After 4 hours of priming, all the media from the LPS treated THP-1 cells in the initial U bottom plate was removed manually. To this plate of primed cells, 80 μL/well test compounds from Plate B was added in duplicate columns (5 compounds tested per plate). The plate was placed in an incubator for 30 min. […] The plate was placed back in the incubator for 1 hour. At the end of 1 hour, the supernatant from this test plate was transferred to a new 96 well V bottom polypropylene plate which was frozen immediately at -80° C. The plate was transferred to -20° C. the next day and awaiting further determination of cytokine IL-1β level. The release of IL-1β into the cell media was determined by MSD® Multi-Spot Assay System (V-Plex, IL-1B kit, […]-4). Following the manufacture's protocol and using the Alternate Protocol 3, Dilute-In-Plate protocol specifically, the level of IL-1β in the above collected supernatant plate was measured as electrochemiluminescent signals. Using MSD DISCOVERY WORKBENCH® analysis software, the signals were converted to the concentration of IL-1β in each well. The IC50 values of the compounds were calculated using the Graph Pad Prism software based on the […] concentration determined. The detection range of IL-1β using MSD kit was approximately […] (based on various lots of standards purchased from MSD).

[2] = system: IL-1β release in U937 cells after NLRP3 activation; test: IC50 determination of IL-1β release inhibition in U937 cells; assay type: cell-based; settings: Homo sapiens, read-out: IL-1β IC50 (nM) U937 cells
Procedure: Example 79: IC50 Determination of IL-1β Release Inhibition in U937 Cells The compounds of the present disclosure were tested for their ability to inhibit the IL-1β release in the U937 cells after NLRP3 activation. U937 cells (U-97 CRL 1593.2) were thawed following ATCC's initial culture procedure. […] The growth medium was composed of RPMI1640 medium (Quality Biological 112-040-101), 10% serum (Corning 35-076-CV), Pen/Strep (GIBCO 15140-122), 10 mM Hepes (Quality Biological 118-089-721), 2 mM Glutamax (GIBCO 35050-061), and 100 μg/mL normocin (Invivogen ant-nr)-Differentiating media was prepared by adding Phorbol 12-myristate 13-acetate (PMA) (AdipoGen AG-CN2-0010-M005) to growth medium. A cell suspension was prepared with differentiating media at 500k cells/ml. With an electronic pipet, 200 ul of cell suspension was added to each well (96w white plate Corning 3903) leaving columns 1 and 2 empty. Plates were left in the biosafety cabinet for 15 min and then placed in incubator for 90 hours. Priming media was prepared with assay medium consisting of RPMI 1640 medium, 10 mM Hepes, 2 mM Glutamax and Pen/Strep plus 1 μg/mL LPS (Invivogen tlrl-3pelps). Differentiating media was manually removed and 80 ul of priming media was added to each well with an electronic pipet. The plates were placed in the incubator for 5 hours. […] DMSO). An hour prior to the end of LPS incubation, a separate 96 deep well plate, Plate B, was prepared with 400 μL of assay media per well, then […] of the stock DMSO solution from Plate A was added to each corresponding well. Plate B was covered to avoid media evaporation. In a 50 mL tube, a solution of nigericin in assay media at 50 uM/mL concentration was prepared. To a new 96 deep well plate, Plate C, 200 μL of this nigericin containing media was dispensed to each well and 1 μL of the test compounds from Plate B to each corresponding well was added. Plate C was covered to avoid media evaporation. After 5 hours of priming, all the media from the LPS treated U937 cells was removed manually. To this plate of primed cells, 80 μL/well test compounds from Plate B (assay media+compound) was added in duplicate columns (5 compounds tested per plate). The plate was placed in an incubator for 30 min. […] The plate was placed back in the incubator for 1 hour. At the end of 1 hour, the supernatant from this test plate was transferred to a new 96 well V bottom polypropylene plate which was frozen immediately at -80° C. The plate was transferred to -20° C. the next day and awaited further determination of cytokine IL-Ip level. The release of IL-1β into the cell media was determined by MSD® Multi-Spot Assay System (V-Plex, IL-1B kit, […]-4). Following the manufacture's protocol and using the Alternate Protocol 3, Dilute-In-Plate protocol specifically, the level of IL-IP in the above collected supernatant plate was measured as electrochemiluminescent signals. Using MSD DISCOVERY WORKBENCH® analysis software, the signals were converted to the concentration of IL-1β in each well. The IC50 values of the compounds were calculated using the Graph Pad Prism software based on the IL-1β concentration determined. The detection range of IL-1β using MSD kit was approximately […] (based on various lots of standards purchased from MSD).

[3] = THP-1-ASC-GFP cells, LPS priming 4 h, nigericin, average of at least three experiments
[4] = U-937, PMA-differentiated U937 cells, LPS priming 5 h, nigericin, average of at least three experiments

| SMILES | IC50 [1, 3] [nM] | IC50 [2, 4] [nM] | IC50 ([1]; 4 h) [nM] | IC50 ([2]; U-937, 5 h) [nM] |
| --- | --- | --- | --- | --- |
| Cc1oc([S@](=N)(=O)NC(=O)Nc2c3c(c(F)c4c2CCC4)CCC3)cc1CNC(C)C (single isomer, unassigned) [Example 29] | < 5 | < 5 | – | – |
| Cc1oc(S(=N)(=O)NC(=O)Nc2c3c(cc4c2CCC4)CCC3)cc1CNC(C)C (single isomer, unassigned) [Example 27, N-((1,2,3,5,6,7-hexahydro-s-indacen-4-yl)carbamoyl)-4-((isopropylamino)methyl)-5-methylfuran-2-sulfonimidamide] | < 5 | < 5 | – | – |
| CN(Cc1coc(S(=O)(=O)NC(=O)Nc2c3c(cc4c2CCC4)CCC3)c1)CC1(O)CCC1 [Example 33, N-((1,2,3,5,6,7-hexahydro-s-indacen-4-yl)carbamoyl)-4-((((1-hydroxycyclobutyl)methyl)(methyl)amino)methyl)furan-2-sulfonamide] | 5 to 50 | 5 to 50 | – | – |
| CC(C)n1nc(S(=N)(=O)NC(=O)Nc2c3c(cc4c2CCC4)CCC3)cc1CN1CCC[C@H]1CO (stereo partly drawn) [Example 21, N-((1,2,3,5,6,7-hexahydro-s-indacen-4-yl)carbamoyl)-5-(((S)-2-(hydroxymethyl)pyrrolidin-1-yl)methyl)-1-isopropyl-1H-pyrazole-3-sulfonimidamide] | < 5 | < 5 | – | – |
| O=C(Nc1c2c(cc3c1CCC3)CCC2)NS(=O)(=O)c1cc2c(o1)CCN(CCCO)C2 [Example 74, N-((1,2,3,5,6,7-hexahydro-s-indacen-4-yl)carbamoyl)-5-(3-hydroxypropyl)-4,5,6,7-tetrahydrofuro[3,2-c]pyridine-2-sulfonamide] | 5 to 50 | 5 to 50 | – | – |
| Cc1cc(S(=O)(=O)NC(=O)Nc2c3c(c(Cl)c4c2CCC4)CCC3)oc1CN(C)CC1(O)CCC1 [Example 57, N-((8-chloro-1,2,3,5,6,7-hexahydro-s-indacen-4-yl)carbamoyl)-5-((((1-hydroxycyclobutyl)methyl)(methyl)amino)methyl)-4-methylfuran-2-sulfonamide] | 5 to 50 | 5 to 50 | – | – |
| Cc1oc(S(=O)(=O)NC(=O)Nc2c3c(c(F)c4c2CCC4)CCC3)cc1CN1CC[C@H](O)C1 [Example 38, (S)—N-((8-fluoro-1,2,3,5,6,7-hexahydro-s-indacen-4-yl)carbamoyl)-4-((3-hydroxypyrrolidin-1-yl)methyl)-5-methylfuran-2-sulfonamide] | – | – | 5 to 50 | 50 to 500 |
| Cc1oc(S(=N)(=O)NC(=O)Nc2c3c(cc4c2CCC4)CCC3)cc1CN1CCC[C@@H]1CO (stereo partly drawn) [Example 7, N-((1,2,3,5,6,7-hexahydro-s-indacen-4-yl)carbamoyl)-4-(((R)-2-(hydroxymethyl)pyrrolidin-1-yl)methyl)-5-methylfuran-2-sulfonimidamide] | < 5 | < 5 | – | – |
| Cc1oc(S(=O)(=O)NC(=O)Nc2c3c(c(F)c4c2CCC4)CCC3)cc1CN1CCC[C@@H]1CO [Example 45, (R)-N-((8-fluoro-1,2,3,5,6,7-hexahydro-s-indacen-4-yl)carbamoyl)-4-((2-(hydroxymethyl)pyrrolidin-1-yl)methyl)-5-methylfuran-2-sulfonamide] | < 5 | 5 to 50 | – | – |
| Cn1nc(S(=O)(=O)NC(=O)Nc2c3c(c(F)c4c2CCC4)CCC3)cc1CN1CC[C@H](O)C1 [Example 60, (S)-N-((8-fluoro-1,2,3,5,6,7-hexahydro-s-indacen-4-yl)carbamoyl)-5-((3-hydroxypyrrolidin-1-yl)methyl)-1-methyl-1H-pyrazole-3-sulfonamide] | 5 to 50 | 50 to 500 | – | – |
| CC(C)NCc1coc([S@](=N)(=O)NC(=O)Nc2c3c(c(F)c4c2CCC4)CCC3)c1 (single isomer, unassigned) [Example 31] | < 5 | < 5 | – | – |
| CC(C)n1nc(S(=N)(=O)NC(=O)Nc2c3c(cc4c2CCC4)CCC3)cc1CN1CC(O)C1 (centres unmarked) [Example 19, N-((1,2,3,5,6,7-hexahydro-s-indacen-4-yl)carbamoyl)-5-((3-hydroxyazetidin-1-yl)methyl)-1-isopropyl-1H-pyrazole-3-sulfonimidamide] | < 5 | 5 to 50 | – | – |
| Cc1cc(S(=O)(=O)NC(=O)Nc2c3c(c(F)c4c2CCC4)CCC3)oc1CN(C)CC1(O)CCC1 [Example 50, N-((8-fluoro-1,2,3,5,6,7-hexahydro-s-indacen-4-yl)carbamoyl)-5-((((1-hydroxycyclobutyl)methyl)(methyl)amino)methyl)-4-methylfuran-2-sulfonamide] | 5 to 50 | 5 to 50 | – | – |
| Cc1oc(S(=N)(=O)NC(=O)Nc2c3c(cc4c2CCC4)CCC3)cc1CN(C)CC1(O)CC1 (centres unmarked) [Example 11, N-((1,2,3,5,6,7-hexahydro-s-indacen-4-yl)carbamoyl)-4-((((1-hydroxycyclopropyl)methyl)(methyl)amino)methyl)-5-methylfuran-2-sulfonimidamide] | < 5 | 5 to 50 | – | – |
| Cc1oc(S(=O)(=O)NC(=O)Nc2c3c(c(F)c4c2CCC4)CCC3)cc1CN(C)CC1(O)CCCC1 [Example 37, N-((8-fluoro-1,2,3,5,6,7-hexahydro-s-indacen-4-yl)carbamoyl)-4-((((1-hydroxycyclopentyl)methyl)(methyl)amino)methyl)-5-methylfuran-2-sulfonamide] | < 5 | 5 to 50 | – | – |
| CNCc1coc([S@](=N)(=O)NC(=O)Nc2c3c(cc4c2CCC4)CCC3)c1 (single isomer, unassigned) [Example 75] | 50 to 500 | 50 to 500 | – | – |
